From the supplement of paper PMC8967900

The compounds below were run on DND-41 (assay: selective drug sensitivity score (sDSS, relative to normal bone marrow) (sDSS (score)); higher = more potent and effective on the cell line relative to normal bone marrow cells). Conditions: 72 h.
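Note: ALL cell lines in 384-well plates, five doses spanning 10,000-fold, each plate scaled between vehicle and 100 µmol/L benzalkonium chloride controls, sDSS an adapted area-under-curve metric.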

| Compound | selective drug sensitivity score |
| --- | --- |
| C=CCN(/C=C1/C(=O)O[C@H](COC)[C@@]2(C)C1=C(O)C(=O)C1=C2[C@H](OC(C)=O)C[C@]2(C)C(=O)CC[C@@H]12)CC=C [Sonolisib] (top concentration 10000 nM) | 1.64 |
| C[C@H]1CNCCCN1S(=O)(=O)c1cccc2cncc(F)c12 [Ripasudil] (top concentration 10000 nM) | -0.22 |
| C[C@@H](Oc1cc(-c2cnn(C3CCNCC3)c2)cnc1N)c1c(Cl)ccc(F)c1Cl [Crizotinib] (top concentration 1000 nM) | -0.54 |
| CCN(CC)CCCC(C)Nc1ccnc2cc(Cl)ccc12 (stereo not drawn) [Chloroquine] (top concentration 100000 nM) | -0.94 |
| N#CC(c1ccnc(OCc2ccc(CN3CCOCC3)cc2)n1)c1nc2ccccc2s1 (stereo not drawn) [Bentamapimod] (top concentration 10000 nM) | 3.64 |
| COc1cc(N2CCC(N3CCN(C)CC3)CC2)ccc1Nc1ncnc(Nc2ccccc2S(=O)(=O)C(C)C)n1 [ASP3026] (top concentration 10000 nM) | 0.56 |
| COCCOc1cnc2ccn([C@H](C)c3nnc4c(F)cc(-c5cnn(C)c5)cn34)c(=O)c2c1 [AMG-337] (top concentration 10000 nM) | -0.06 |
| Cc1cnc(NC(=O)Nc2cc(Br)c(C)cc2OC[C@@H]2CNCCO2)cn1 [Rabusertib] (top concentration 1000 nM) | 6.16 |
| CNC(=O)c1ccc(-c2cnc3ncc(Cc4ccc5ncccc5c4)n3n2)cc1F [Capmatinib] (top concentration 1000 nM) | 0.34 |
| COc1cc2/c(=N/c3ccc(Br)cc3F)nc[nH]c2cc1OCC1CCN(C)CC1 [Vandetanib] (top concentration 1000 nM) | -0.22 |

These compounds were tested on P30-OHKUBO in the same assay as above. Conditions: 72 h.

| Compound | selective drug sensitivity score |
| --- | --- |
| O=C1c2c(O)ccc(O)c2C(=O)c2c(NCCNCCO)ccc(NCCNCCO)c21 [Mitoxantrone] (top concentration 1000 nM) | 7.84 |
| Nc1ncnc2c1c(COc1cccc(Cl)c1)nn2C1CCOCC1 (top concentration 10000 nM) | 0.56 |
| CC1(C)CNc2cc(NC(=O)c3cccnc3NCc3ccncc3)ccc21 [Motesanib] (top concentration 10000 nM) | -0.22 |
| NC(=O)c1cccc(-c2cccc(OC(=O)NC3CCCCC3)c2)c1 [URB597] (top concentration 1000 nM) | -0.46 |
| CCCN(CCC)C(=O)C1=Cc2ccc(-c3ccc(C(=O)N4CCCC4)cc3)cc2N=C(N)C1 [Motolimod] (top concentration 10000 nM) | -1.58 |
| CCCOc1ccn2c(C(C)=O)cc(-c3ccccc3S(C)(=O)=O)c2c1 [GSK2801] (top concentration 10000 nM) | -0.36 |
| Nc1cc(COc2c(Cl)cc(C[C@H](N)C(=O)O)cc2Cl)c2oc(-c3ccccc3)nc2c1 [JPH203] (top concentration 5000 nM) | 2.2 |
| CC/C(=C(\c1ccccc1)c1ccc(OCCN(C)C)cc1)c1ccccc1 [Tamoxifen] (top concentration 10000 nM) | 3.32 |
| NC(=S)N/N=C/c1ncccc1N [Triapine] (top concentration 10000 nM) | 2.88 |
| C=CCN(/C=C1/C(=O)O[C@H](COC)[C@@]2(C)C1=C(O)C(=O)C1=C2[C@H](OC(C)=O)C[C@]2(C)C(=O)CC[C@@H]12)CC=C [Sonolisib] (top concentration 10000 nM) | -0.16 |
| C[C@H]1CNCCCN1S(=O)(=O)c1cccc2cncc(F)c12 [Ripasudil] (top concentration 10000 nM) | -0.22 |
| C[C@@H](Oc1cc(-c2cnn(C3CCNCC3)c2)cnc1N)c1c(Cl)ccc(F)c1Cl [Crizotinib] (top concentration 1000 nM) | -0.54 |
| CCN(CC)CCCC(C)Nc1ccnc2cc(Cl)ccc12 (stereo not drawn) [Chloroquine] (top concentration 100000 nM) | 0.26 |
| N#CC(c1ccnc(OCc2ccc(CN3CCOCC3)cc2)n1)c1nc2ccccc2s1 (stereo not drawn) [Bentamapimod] (top concentration 10000 nM) | 5.34 |
| COc1cc(N2CCC(N3CCN(C)CC3)CC2)ccc1Nc1ncnc(Nc2ccccc2S(=O)(=O)C(C)C)n1 [ASP3026] (top concentration 10000 nM) | -1.04 |
| COCCOc1cnc2ccn([C@H](C)c3nnc4c(F)cc(-c5cnn(C)c5)cn34)c(=O)c2c1 [AMG-337] (top concentration 10000 nM) | 0.84 |
| Cc1cnc(NC(=O)Nc2cc(Br)c(C)cc2OC[C@@H]2CNCCO2)cn1 [Rabusertib] (top concentration 1000 nM) | -0.74 |
| CNC(=O)c1ccc(-c2cnc3ncc(Cc4ccc5ncccc5c4)n3n2)cc1F [Capmatinib] (top concentration 1000 nM) | -0.06 |
| COc1cc2/c(=N/c3ccc(Br)cc3F)nc[nH]c2cc1OCC1CCN(C)CC1 [Vandetanib] (top concentration 1000 nM) | 0.38 |

What follows are compounds tested on 697 in the same assay as above. Conditions: 72 h.

| Compound | selective drug sensitivity score |
| --- | --- |
| O=C1c2c(O)ccc(O)c2C(=O)c2c(NCCNCCO)ccc(NCCNCCO)c21 [Mitoxantrone] (top concentration 1000 nM) | 15.6 |
| Nc1ncnc2c1c(COc1cccc(Cl)c1)nn2C1CCOCC1 (top concentration 10000 nM) | 0.26 |
| CC1(C)CNc2cc(NC(=O)c3cccnc3NCc3ccncc3)ccc21 [Motesanib] (top concentration 10000 nM) | -0.22 |
| NC(=O)c1cccc(-c2cccc(OC(=O)NC3CCCCC3)c2)c1 [URB597] (top concentration 1000 nM) | -0.36 |
| CCCN(CCC)C(=O)C1=Cc2ccc(-c3ccc(C(=O)N4CCCC4)cc3)cc2N=C(N)C1 [Motolimod] (top concentration 10000 nM) | -2.68 |
| CCCOc1ccn2c(C(C)=O)cc(-c3ccccc3S(C)(=O)=O)c2c1 [GSK2801] (top concentration 10000 nM) | -0.16 |
| Nc1cc(COc2c(Cl)cc(C[C@H](N)C(=O)O)cc2Cl)c2oc(-c3ccccc3)nc2c1 [JPH203] (top concentration 5000 nM) | 0 |
| CC/C(=C(\c1ccccc1)c1ccc(OCCN(C)C)cc1)c1ccccc1 [Tamoxifen] (top concentration 10000 nM) | 1.62 |
| NC(=S)N/N=C/c1ncccc1N [Triapine] (top concentration 10000 nM) | 5.88 |
| C=CCN(/C=C1/C(=O)O[C@H](COC)[C@@]2(C)C1=C(O)C(=O)C1=C2[C@H](OC(C)=O)C[C@]2(C)C(=O)CC[C@@H]12)CC=C [Sonolisib] (top concentration 10000 nM) | 0.24 |
| C[C@H]1CNCCCN1S(=O)(=O)c1cccc2cncc(F)c12 [Ripasudil] (top concentration 10000 nM) | 2.68 |
| C[C@@H](Oc1cc(-c2cnn(C3CCNCC3)c2)cnc1N)c1c(Cl)ccc(F)c1Cl [Crizotinib] (top concentration 1000 nM) | -0.24 |
| CCN(CC)CCCC(C)Nc1ccnc2cc(Cl)ccc12 (stereo not drawn) [Chloroquine] (top concentration 100000 nM) | -2.14 |
| N#CC(c1ccnc(OCc2ccc(CN3CCOCC3)cc2)n1)c1nc2ccccc2s1 (stereo not drawn) [Bentamapimod] (top concentration 10000 nM) | 5.14 |
| COc1cc(N2CCC(N3CCN(C)CC3)CC2)ccc1Nc1ncnc(Nc2ccccc2S(=O)(=O)C(C)C)n1 [ASP3026] (top concentration 10000 nM) | -0.84 |
| COCCOc1cnc2ccn([C@H](C)c3nnc4c(F)cc(-c5cnn(C)c5)cn34)c(=O)c2c1 [AMG-337] (top concentration 10000 nM) | -0.06 |
| Cc1cnc(NC(=O)Nc2cc(Br)c(C)cc2OC[C@@H]2CNCCO2)cn1 [Rabusertib] (top concentration 1000 nM) | -0.74 |
| CNC(=O)c1ccc(-c2cnc3ncc(Cc4ccc5ncccc5c4)n3n2)cc1F [Capmatinib] (top concentration 1000 nM) | -0.06 |
| COc1cc2/c(=N/c3ccc(Br)cc3F)nc[nH]c2cc1OCC1CCN(C)CC1 [Vandetanib] (top concentration 1000 nM) | 0.18 |
